Consider eleven molecules from patent publication US4179516A, “Ethers of 3,4-dihydro-1-benzoxepin-5-one oxime to treat intestinal disorders” (Albert Rolland, S.A., priority 1973, dated 1979).

Read-outs that look alike come from different tables or passages of the source. Bounds are passed on as bounds.

The conditions of data set [1]: according to the authors of Collection Czechoslov. Chem. Common 37 868-886 (1972); cited from earlier work.
Data set [2] deals with rat duodenum. Nature of the data set: Relaxant activity in vitro on isolated organ: decontraction (rat duodenum). The note with it: Tyrode solution, 37° C. As for the experimental part:
(§1) The tests were carried out on acid addition salts of the amines of the general formula.
(§2) For tests on the isolated organ: An organ fragment of rat duodenum or guinea pig ileum is kept alive in 50 ml of oxygenated and thermostatically controlled (37° C.) Tyrode solution. The activity of the compounds is tested on the spontaneous movements of the organ and the contractions produced by the addition of solution of barium chloride or acetyl choline to the bath. The movements were recorded on a DMP 4A Roucaire physiograph.

Data set [3] concerns guinea pig ileum. The experiment in a line: Relaxant activity in vitro on isolated organ: anti-acetylcholine (guinea pig ileum). To be noted: Tyrode solution, 37° C., acetyl choline. The procedure:
as §1, §2

A short description of data set [4]: in vivo. The note with it: mouse, male Swiss C.D. mice, acid addition salts. As for the experimental part: as §1
The acute toxicity was determined in male Swiss C.D. mice weighing an average of 20 grammes, after oral administration (P.O) and intravenous administration (I.V.).

Data set [5] deals with smooth intestinal muscle fibre (terminal part of the duodenum). The experiment in a line: In vivo relaxant activity on smooth intestinal muscle in the anaesthetised (chloralosed) dog, balloon in terminal duodenum. To be noted: 2 mg/kg intravenously, compared with atropine. As for the experimental part:
as §1
For the in vivo tests: a balloon is introduced into the chloralosed animal at the level of the terminal part of the duodenum and the intestinal movements are recorded on a Beckman polygraph with the acid of Statham PM 97 gauge.

Where [6] appears, read: intravenous, read-out: Toxicity in mice LD50 I.V.
The mark [7] stands for this setting: oral, read-out: Toxicity in mice LD50 P.O.

With `CN(C)CCON=C1CCCOc2cc(Cl)ccc21`, the spasmolytic action result in data set [1] is on record as “weak spasmolytic action”.

`CN1[C@@H]2CC[C@H]1C[C@@H](OC(=O)C(CO)c1ccccc1)C2` (stereo partly shown) [ATROPINE, reference compound]: in data set [2], the “Minimum active dose concentration, Decontraction (rat duodenum)” value is “inactive”. Besides, the “Minimum active dose concentration, Anti-Acetyl-Cholire (guinea pig ileum)” value in data set [3] amounted to 0.006 µg/mL.

A word on the LD50: it is the dose expected to kill half of the subjects tested. Consider `CN(C)CCON=C1CCCOc2ccc(Cl)cc21` [Example 1, 7-chloro-3,4-dihydro-1-benzoxepin-O-(dimethylaminoethyl)-5-one oxime], for which the figures for the LD50 in data set [4] (setting [6]) and in data set [4] (setting [7]) were 32 mg/kg and 150 mg/kg, respectively. Besides, the “Minimum active dose concentration, Decontraction (rat duodenum)” value in data set [2] turned out to be 0.06 µg/mL. Further, in data set [3], the “Minimum active dose concentration, Anti-Acetyl-Cholire (guinea pig ileum)” value came to 5.5 µg/mL. In addition, the “effect as regards the reduction in muscle tone and intestinal peristalsis” value (“effect as regards the reduction” below) in data set [5] is recorded as “comparable with or even superior to that of atropine”.

Turning to `CCN(CC)CCO/N=C1/CCCOc2ccc(Cl)cc21` [Example 2, 7-chloro-3,4-dihydro-1-benzoxepin-O-(diethylaminoethyl)-5-one oxime: isomer with the cis configuration in relation to the benzene nucleus], the LD50 turned out to be 37 mg/kg in data set [4] (setting [6]) and 420 mg/kg in data set [4] (setting [7]). Also, the “Minimum active dose concentration, Decontraction (rat duodenum)” value in data set [2] amounted to 0.1 µg/mL. Also, the “Minimum active dose concentration, Anti-Acetyl-Cholire (guinea pig ileum)” value in data set [3] came out at 1 µg/mL. Further, the “effect as regards the reduction” value in data set [5] is listed as “comparable with or even superior to that of atropine”.

As to `Clc1ccc2c(c1)C(=NOCCN1CCOCC1)CCCO2` [Example 6, 7-chloro-3,4-dihydro-1-benzoxepin-O-(morpholinoethyl)-5-one oxime], the LD50 in data set [4] (setting [6]) was 120 mg/kg; in data set [4] (setting [7]), above 1000 mg/kg. Moreover, in data set [2], the “Minimum active dose concentration, Decontraction (rat duodenum)” value stood at 0.15 µg/mL. The “Minimum active dose concentration, Anti-Acetyl-Cholire (guinea pig ileum)” value in data set [3] amounted to 5.5 µg/mL.

Turning to `Clc1ccc2c(c1)C(=NOCCN1CCCC1)CCCO2` [Example 7, 7-chloro-3,4-dihydro-1-benzoxepin-O-(1-pyrrolidinyl-ethyl)-5-one oxime], the LD50 in data set [4] (setting [6]) stood at 35 mg/kg; in data set [4] (setting [7]) it was 450 mg/kg. Besides, the “Minimum active dose concentration, Decontraction (rat duodenum)” value in data set [2] is 1.5 µg/mL. Also, the “Minimum active dose concentration, Anti-Acetyl-Cholire (guinea pig ileum)” value in data set [3] worked out at 1.3 µg/mL. For the same molecule, the “effect as regards the reduction” value in data set [5] is “comparable with or even superior to that of atropine”.

For the molecule `CN(C)CCCON=C1CCCOc2ccc(Cl)cc21` [Example 8, 7-chloro-3,4-dihydro-1-benzoxepin-O-(dimethylaminopropyl)-5-one oxime], the LD50 in data set [4] (setting [6]) turned out to be 60 mg/kg; in data set [4] (setting [7]), 500 mg/kg. For the same molecule, in data set [2], the “Minimum active dose concentration, Decontraction (rat duodenum)” value worked out at 0.12 µg/mL. Also, in data set [3], the “Minimum active dose concentration, Anti-Acetyl-Cholire (guinea pig ileum)” value stood at 3.5 µg/mL. Moreover, in data set [5], the “effect as regards the reduction” value was “comparable with or even superior to that of atropine”.

On to `COc1ccc2c(c1)C(=NOCCN(C)C)CCCO2` [Example 9, 7-methoxy-3,4-dihydro-1-benzoxepin-O-(dimethylaminoethyl)-5-one oxime], for which the values for the LD50 in data set [4] (setting [6]) and in data set [4] (setting [7]) were 35 mg/kg and 500 mg/kg, respectively. For the same molecule, in data set [2], the “Minimum active dose concentration, Decontraction (rat duodenum)” value turned out to be 0.12 µg/mL. In data set [3], the “Minimum active dose concentration, Anti-Acetyl-Cholire (guinea pig ileum)” value worked out at 1.5 µg/mL.

`CCN(CC)CCON=C1CCCOc2ccc(OC)cc21` [Example 10, 7-methoxy-3,4-dihydro-1-benzoxepin-O-(diethylaminoethyl)-5-one oxime]: the LD50 in data set [4] (setting [6]) stood at 45 mg/kg; in data set [4] (setting [7]), 450 mg/kg. In data set [2], the “Minimum active dose concentration, Decontraction (rat duodenum)” value came to 0.5 µg/mL. In data set [3], the “Minimum active dose concentration, Anti-Acetyl-Cholire (guinea pig ileum)” value was 0.5 µg/mL.

Regarding `COc1ccc2c(c1)C(=NOCCCN(C)C)CCCO2` [Example 11], the LD50 in data set [4] (setting [7]) is above 1000 mg/kg. In data set [2], the “Minimum active dose concentration, Decontraction (rat duodenum)” value is 0.3 µg/mL. Further, the “Minimum active dose concentration, Anti-Acetyl-Cholire (guinea pig ileum)” value in data set [3] amounted to 2.0 µg/mL.

For the molecule `CCN(CC)CCON=C1CCCOc2ccc(Br)cc21` [Example 12, 7-bromo-3,4-dihydro-1-benzoxepin-O-(diethylaminoethyl)-5-one oxime], the values for the LD50 in data set [4] (setting [6]) and in data set [4] (setting [7]) were 40 mg/kg and 250 mg/kg, respectively. In addition, the “Minimum active dose concentration, Decontraction (rat duodenum)” value in data set [2] turned out to be 0.1 µg/mL. In addition, in data set [3], the “Minimum active dose concentration, Anti-Acetyl-Cholire (guinea pig ileum)” value stood at 1 µg/mL. For the same molecule, in data set [5], the “effect as regards the reduction” value is “comparable with or even superior to that of atropine”.
